Experimental data taken from US12384777B2 (Tay Therapeutics Limited, priority 2019, dated 2025).
Like-named read-outs stand apart in the source and are kept apart here.

Legend:
BRDT(1) = BRDT(1) (Homo sapiens (Human), UniProt Q58F21); assay: Bromodomain binding assay, BRDT(1); settings: single point, screened at 30 times Kd; lower numbers indicate stronger hits
Experimental: (§1) T7 phage strains displaying bromodomains were grown in parallel in 24-well blocks in an E. coli host derived from the BL21 strain. E. coli were grown to log-phase and infected with T7 phage from a frozen stock (multiplicity of infection=0.4) and incubated with shaking at 32° C. until lysis (90-150 min). The lysates were centrifuged (5,000×g) and filtered (0.2 μm) to remove cell debris. Streptavidin-coated magnetic beads were treated with biotinylated small molecule or acetylated peptide ligands for 30 min at RT to generate affinity resins for bromodomain assays. The ligated beads were blocked with excess biotin and washed with blocking buffer (SeaBlock (Pierce), 1% BSA, 0.05% Tween 20, 1 mM DTT) to remove unbound ligand and to reduce non-specific phage binding. Binding reactions were assembled by combining bromodomains, ligated affinity beads, and test compounds in 1× binding buffer (16% SeaBlock, 0.32×PBS, 0.02% BSA, 0.04% Tween 20, 0.004% Sodium azide, 7.9 mM DTT). Test compounds were prepared as 1000× stocks in 100% DMSO and subsequently diluted 1:25 in MEG. The compounds were then diluted directly into the assays such that the final concentrations of DMSO and MEG were 0.1% and 2.4%, respectively. All reactions were performed in polypropylene 384-well plates in a final volume of 0.02 ml. The assay plates were incubated at RT with shaking for 1 hr and the affinity beads were washed with wash buffer (1×PBS, 0.05% Tween 20). The beads were then re-suspended in elution buffer (1×PBS, 0.05% Tween 20, 2 μM non-biotinylated affinity ligand) and incubated at RT with shaking for 30 min. The bromodomain concentration in the eluates was measured by quantitative polymerase chain reaction (qPCR).
(§2) An 11-point 3-fold serial dilution of each test compound was prepared in 100% DMSO at 1000× final test concentration. […] Most dissociation constants were determined using a compound top concentration=10,000 nM. If the initial dissociation constant determined was <0.169 nM (the lowest concentration tested), the measurement was repeated with a serial dilution starting at a lower top concentration. […]

BRD2(2) = BRD2(2) (Homo sapiens (Human), UniProt P25440); assay: Bromodomain binding assay, BRD2(2); settings: single point, screened at 30 times Kd; lower numbers indicate stronger hits
Experimental: as §1, §2

BRDT(2) = BRDT(2) (Homo sapiens (Human), UniProt Q58F21); assay: Bromodomain binding assay, BRDT(2); settings: single point, screened at 30 times Kd; lower numbers indicate stronger hits
Experimental: as §1, §2

[1] = test system: CD4+ T-cells stimulated by CD2, CD3 and CD28 antibodies; assay: Cellular activity IL-4: reduction of IL-4 levels in activated CD4+ T-cells; assay type: cell-based, human; settings: Homo sapiens, T-cell
Experimental: • 1. CD4^+ T-cells are isolated from cryopreserved human peripheral blood mononuclear cells (PBMCs) using EasySep™ Kit (Cat. No. 17952, Stemcell Technologies). • 2. CD2, CD3 and CD28 antibodies coated beads from T cell Activation/Expansion Kit (Cat. No. 130-091-441, Miltenyi Biotec) are added to the CD4^+ T-cells at a bead-to-cell ratio of 1:2. • 3. CD4^+ T-cells along with the beads are seeded at 2×10^5 cells/well in a round bottom 96-well plate and treated with different compounds and controls in a total volume of 200 μl. • 4. The cells are cultured for 48 hrs at 37° C., 5% CO2. • 5. Supernatant is collected and IL-4 is analysed by ELISA.

human liver hepatocytes = assay: Intrinsic clearance in human liver hepatocytes; assay type: in vitro ADME; settings: human cryopreserved hepatocytes, 0.5 μM test compound
How it was run: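 Cryopreserved human hepatocytes in supplemented Williams Medium E were incubated at 37 °C, 5% CO2, with 0.5 μM compound at 0.25 million cells/mL final. Aliquots taken up to 120 min were quenched into acetonitrile and analysed by UPLC-MS/MS. Clearance came from an exponential decay fit of compound-to-internal-standard ratio over time.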

[2] = Solubility in topical formulations; assay type: physicochemical; settings: thermodynamic from solid, 5 hr at 32° C.
Experimental: The solubilities of solid exemplary compounds were determined in a selection of solvents and solvent combinations (Transcutol, 50:50 Transcutol:water, Labrasol, propylene glycol and 1:5:4 ethanol:propylene glycol:water), after equilibration. An appropriate volume of each combination was added to a manual weighing of solid compound to provide a 20 mg/mL concentration. The resulting suspension was shaken at 1000 rpm for 5 hr at 32° C. before centrifugation at 13,000×g for 10 min to pellet any precipitate. The supernatant solution was removed and inserted into a HPLC vial and quantified by HPLC-UV against a calibration of a known concentration of the compound in DMSO.

[3] = 48 hrs, ELISA, read-out: EC50 reduction of IL-4 levels
[4] = read-out: cellular EC50 values, reduction of IL-4 levels
[5] = Labrasol, oil or lipid, read-out: Solubility in LB (Labrasol)
[6] = Transcutol, organic solvent or mixture, read-out: Solubility in TC (Transcutol)
[7] = Transcutol:water 1:1, aqueous with cosolvent or surfactant or cyclodextrin, read-out: Solubility in TC:water 1:1
[8] = ethanol:propylene glycol:water 1:5:4, aqueous with cosolvent or surfactant or cyclodextrin, read-out: Solubility in EtOH:PG:water 1:5:4
[9] = propylene glycol, organic solvent or mixture, read-out: Solubility in PG (Propylene glycol)

Sequence of BRD2(2) (P25440 344-453): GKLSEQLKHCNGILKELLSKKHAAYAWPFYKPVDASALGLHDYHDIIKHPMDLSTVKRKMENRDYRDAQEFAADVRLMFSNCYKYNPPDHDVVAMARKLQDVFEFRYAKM

BRDT(1) % Ctrl (BRDT(1)) [% Ctrl] | BRD2(2) % Ctrl (BRD2(2)) [% Ctrl] | BRDT(2) % Ctrl (BRDT(2)) [% Ctrl] | EC50 [1, 3] [nM] | EC50 [1, 4] [nM] | Intrinsic clearance, % Liver Blood Flow (human liver hepatocytes) [% Liver Blood Flow] | solubility at 5 hr [2, 5] [µg/mL] | solubility at 5 hr [2, 6] [µg/mL] | solubility at 5 hr [2, 7] [µg/mL] | solubility at 5 hr [2, 8] [µg/mL] | solubility at 5 hr [2, 9] [µg/mL] | Structure (SMILES)
0 | 0.6 | 3.8 | ≤ 10 | < 100 | 83 | 1000 to 10000 | > 10000 | 1000 to 10000 | 1000 to 10000 | 1000 to 10000 | Cn1cc(-c2cccc(O)c2Oc2ccccc2)c2cc[nH]c2c1=O [Example 1, 4-(3-hydroxy-2-phenoxyphenyl)-6-methyl-1,6-dihydro-7H-pyrrolo[2,3-c]pyridin-7-one]
 |  |  | 10 to 100 | < 100 | 86 | > 10000 | > 10000 | > 10000 | 1000 to 10000 | > 10000 | Cn1cc(-c2c(O)cccc2Oc2ccccc2)c2cc[nH]c2c1=O [Example 3, 4-(2-hydroxy-6-phenoxyphenyl)-6-methyl-1,6-dihydro-7H-pyrrolo[2,3-c]pyridin-7-one]
